We go through 26 compounds from US8399465B2, “Compounds with two fused bicyclic heteroaryl moieties as modulators of leukotriene A4 hydrolase” (Janssen Pharmaceutica NV, priority 2009, dated 2013).

One may read the IC50 as the concentration needed to halve the response being measured.

Counter-ions that a name gives are not always drawn. Where only a bound is given, the exact number is not on record here.

For experiment [1], the system named is LTB4 production in murine blood (LTA4H). Put plainly: LTB4 production by calcium ionophore-stimulated murine blood for LTA4H inhibitor activity. To be noted: Mus musculus; murine blood diluted 1 in 15, A23187 stimulated; single determination or average; mark after value = form tested: ′ free base, ″ hydrochloride, ^ formate; read-out: IC50. Type of experiment: cell-based, CD-1 mice. An outline of the steps: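 Heparinized blood from CD-1 mice was preincubated with compound for 15 min at 37° C, then stimulated with calcium ionophore A23187 (final 7 μg/mL) for 30 min. Centrifugation stopped the reaction, and LTB4 in the supernatant was measured by enzyme immunoassay. Values are single determinations or means of two or more.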

Experiment [2] deals with T1, recombinant human LTA4 hydrolase (rhLTA4H) (Homo sapiens, UniProt P09960).
T1 construct: made in house; host or cells: Spodoptera frugiperda (Sf-9) cells, baculovirus (pFastBac1)
T1 sequence (P09960 1-611): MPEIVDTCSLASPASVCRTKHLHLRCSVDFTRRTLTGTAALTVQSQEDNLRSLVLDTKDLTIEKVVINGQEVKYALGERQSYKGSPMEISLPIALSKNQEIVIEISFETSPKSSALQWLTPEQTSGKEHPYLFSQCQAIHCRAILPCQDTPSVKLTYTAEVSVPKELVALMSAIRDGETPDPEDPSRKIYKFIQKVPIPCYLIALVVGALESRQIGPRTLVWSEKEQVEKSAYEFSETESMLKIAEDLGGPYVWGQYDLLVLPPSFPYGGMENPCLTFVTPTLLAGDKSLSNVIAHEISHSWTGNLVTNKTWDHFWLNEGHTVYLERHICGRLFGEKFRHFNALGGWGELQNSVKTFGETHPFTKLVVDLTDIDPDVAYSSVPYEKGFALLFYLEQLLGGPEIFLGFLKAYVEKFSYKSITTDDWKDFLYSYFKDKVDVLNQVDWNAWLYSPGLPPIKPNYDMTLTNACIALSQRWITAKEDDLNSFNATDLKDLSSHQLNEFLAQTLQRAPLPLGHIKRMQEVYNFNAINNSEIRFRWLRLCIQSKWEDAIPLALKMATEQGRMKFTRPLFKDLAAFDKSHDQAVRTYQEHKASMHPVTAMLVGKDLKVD
Put plainly: Recombinant human LTA4 hydrolase assay for LTA4 hydrolase inhibitor activity. Format: biochemical. The conditions noted are these: rhLTA4H, LTB4 by immunoassay; single determination or average of two or more; mark after value = form tested: ′ free base, ″ hydrochloride, ^ formate; read-out: IC50. Put shortly:
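Baculovirus/Sf-9-expressed human LTA4H (10 ng) was preincubated 10 min at rt with compound in assay buffer (10% DMSO in compound dilution), then reacted 30 min at rt with LTA4 free acid made from its methyl ester. LTB4 produced was measured by ELISA after dilution; IC50 from non-linear regression, single or averaged determinations.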

For `NC(=O)N[C@@H]1C[C@H]2CC[C@@H](C1)N2Cc1coc2cc(Oc3nc4ncccc4s3)ccc12` [Example 207, meso-exo-{8-[6-(Thiazolo[4,5-b]pyridin-2-yloxy)-benzofuran-3-ylmethyl]-8-aza-bicyclo[3.2.1]oct-3-yl}-urea], the results for the IC50 in experiment [1] and in experiment [2] were 0.16 µM and 0.001 µM, respectively.

Regarding `c1ccc(C2CCN(Cc3coc4cc(Oc5nc6ncccc6s5)ccc34)CC2)cc1` [Example 280, 2-[3-(4-Phenyl-piperidin-1-ylmethyl)-benzofuran-6-yloxy]-thiazolo[4,5-b]pyridine formate], the IC50 in experiment [1] was 0.13 µM; in experiment [2], 0.01 µM.

As for `CC(C)CN1CCN(Cc2coc3cc(Oc4nc5ncccc5s4)ccc23)CC1` [Example 308, 2-[3-(4-Isobutyl-piperazin-1-ylmethyl)-benzofuran-6-yloxy]-thiazolo[4,5-b]pyridine formate], the IC50 was found to be 0.071 µM in experiment [1] and 0.009 µM in experiment [2].

Take `c1cnc2nc(Oc3ccc4c(CN5CCN(C6CC6)CC5)coc4c3)sc2c1` [Example 277, 2-[3-(4-Cyclopropyl-piperazin-1-ylmethyl)-benzofuran-6-yloxy]-thiazolo[4,5-b]pyridine]: the IC50 in experiment [1] was 0.13 µM; in experiment [2] it was 0.012 µM.

Take `O=C(c1coc2cc(Oc3nc4ncccc4s3)ccc12)N1CCCCC1` [Example 383, Piperidin-1-yl-[6-(thiazolo[4,5-b]pyridin-2-yloxy)-benzofuran-3-yl]-methanone]: the IC50 in experiment [1] was found to be 0.2 µM; in experiment [2], 0.05 µM.

`CC(=O)NC1CCN(Cc2coc3cc(Oc4nc5ncc(F)cc5s4)ccc23)CC1` [Example 255, N-{1-[6-(6-Fluoro-thiazolo[4,5-b]pyridin-2-yloxy)-benzofuran-3-ylmethyl]-piperidin-4-yl}-acetamide formate]: the IC50 in experiment [1] amounted to 0.072 µM; in experiment [2], 0.031 µM.

On to `c1cnc2nc(Oc3ccc4c(CN5CCSCC5)c[nH]c4c3)sc2c1` [Example 42, 2-(3-Thiomorpholin-4-ylmethyl-1H-indol-6-yloxy)-thiazolo[4,5-b]pyridine], for which the IC50 in experiment [1] is 0.027 µM; in experiment [2], below 0.001 µM.

For the compound `O=C1C[C@@H](O)CN1C1CCN(Cc2c[nH]c3cc(Oc4nc5ccccc5s4)ccc23)CC1` [Example 44, (4R)-1-{1-[6-(Benzothiazol-2-yloxy)-1H-indol-3-ylmethyl]-piperidin-4-yl}-4-hydroxy-pyrrolidin-2-one], the values for the IC50 in experiment [1] and in experiment [2] were 0.222 µM and 0.006 µM, respectively.

`CC(=O)N[C@H]1C[C@H]2CC[C@@H](C1)N2Cc1c[nH]c2cc(Oc3nc4ncccc4s3)ccc12` [Example 18, meso-endo-N-{8-[6-(Thiazolo[4,5-b]pyridin-2-yloxy)-1H-indol-3-ylmethyl]-8-aza-bicyclo[3.2.1]oct-3-yl}-acetamide]: the figures for the IC50 in experiment [1] and in experiment [2] were 0.301 µM and 0.001 µM, respectively.

`CC(=O)N1CCN(CC(=O)NCc2coc3cc(Oc4nc5ncccc5s4)ccc23)CC1` [Example 390, 2-(4-Acetyl-piperazin-1-yl)-N-[6-(thiazolo[4,5-b]pyridin-2-yloxy)-benzofuran-3-ylmethyl]-acetamide]: the IC50 was 0.27 µM in experiment [1] and 0.027 µM in experiment [2].

In the case of `CC1CCN(Cc2coc3cc(Oc4nc5ncccc5s4)ccc23)CC1` [Example 286, 2-[3-(4-Methyl-piperidin-1-ylmethyl)-benzofuran-6-yloxy]-thiazolo[4,5-b]pyridine formate], the IC50 in experiment [1] is 0.055 µM; in experiment [2] it was 0.001 µM.

On to `O=C(C1CCN(Cc2c[nH]c3cc(Oc4nc5ccccc5s4)ccc23)CC1)N1CCCCC1` [Example 24, {1-[6-(Benzothiazol-2-yloxy)-1H-indol-3-ylmethyl]-piperidin-4-yl}-piperidin-1-yl-methanone], for which the IC50 in experiment [1] was determined as 0.341 µM; in experiment [2] it was 0.002 µM.

As to `NC(=O)N1CC2CN(Cc3coc4cc(Oc5nc6ncccc6s5)ccc34)CC2C1` (stereo not shown) [Example 161, 5-[6-(Thiazolo[4,5-b]pyridin-2-yloxy)-benzofuran-3-ylmethyl]-hexahydro-pyrrolo[3,4-c]pyrrole-2-carboxylic acid amide], the IC50 turned out to be 0.069 µM in experiment [1] and 0.009 µM in experiment [2].

On to `CC(C)(C)OC(=O)N1C[C@@H]2C[C@H]1CN2Cc1c[nH]c2cc(Oc3nc4ccccc4s3)ccc12` [Example 147, (1S,4S)-5-[6-(Benzothiazol-2-yloxy)-1H-indol-3-ylmethyl]-2,5-diaza-bicyclo[2.2.1]heptane-2-carboxylic acid tert-butyl ester], for which the values for the IC50 in experiment [1] and in experiment [2] were 0.568 µM and 0.012 µM, respectively.

Consider `NC1CCN(Cc2c[nH]c3cc(Oc4nc5ccccc5s4)ccc23)CC1` [Example 50, 1-[6-(Benzothiazol-2-yloxy)-1H-indol-3-ylmethyl]-piperidin-4-ylamine 2HCl], for which the IC50 amounted to 0.739 µM in experiment [1] and 0.028 µM in experiment [2].

In the case of `CC(=O)NC1CCN(Cc2c[nH]c3cc(Oc4nc5ccccc5s4)ccc23)CC1` [Example 53, N-{1-[6-(Benzothiazol-2-yloxy)-1H-indol-3-ylmethyl]-piperidin-4-yl}-acetamide], the IC50 in experiment [1] turned out to be 0.204 µM; in experiment [2] it was 0.008 µM.

Consider `CC(=O)N1C[C@H]2C[C@@H]1CN2Cc1cc2ncc(Oc3nc4ncccc4s3)cc2o1` [Example 340, (1R,4R)-1-{5-[6-(Thiazolo[4,5-b]pyridin-2-yloxy)-furo[3,2-b]pyridin-2-ylmethyl]-2,5-diaza-bicyclo[2.2.1]hept-2-yl}-ethanone formate], for which the concentration for half-maximal inhibition (IC50) in experiment [1] amounted to 0.61 µM; in experiment [2], 0.012 µM.

`CC1CN(Cc2coc3cc(Oc4nc5ncccc5s4)ccc23)CC(C)O1` (stereo not shown) [Example 349, 2-[3-(2,6-Dimethyl-morpholin-4-ylmethyl)-benzofuran-6-yloxy]-thiazolo[4,5-b]pyridine]: the concentration for half-maximal inhibition (IC50) in experiment [1] came to 0.86 µM; in experiment [2], 0.026 µM.

Consider `c1ccc(CNCc2coc3cc(Oc4nc5ncccc5s4)ccc23)cc1` [Example 344, Benzyl-[6-(thiazolo[4,5-b]pyridin-2-yloxy)-benzofuran-3-ylmethyl]-amine], for which the IC50 in experiment [1] was 0.1 µM; in experiment [2], 0.021 µM.

Regarding `CC(C)(C)C1CCN(Cc2coc3cc(Oc4nc5ncccc5s4)ccc23)CC1` [Example 302, 2-[3-(4-tert-Butyl-piperidin-1-ylmethyl)-benzofuran-6-yloxy]-thiazolo[4,5-b]pyridine formate], the IC50 in experiment [1] is 0.078 µM; in experiment [2], 0.02 µM.

In the case of `NC(=O)N[C@H]1C[C@H]2CC[C@@H](C1)N2Cc1cc2ccc(Oc3nc4ncccc4s3)cc2o1` [Example 172, meso-endo-{8-[6-(Thiazolo[4,5-b]pyridin-2-yloxy)-benzofuran-2-ylmethyl]-8-aza-bicyclo[3.2.1]oct-3-yl}-urea], the results for the IC50 in experiment [1] and in experiment [2] were 0.23 µM and 0.009 µM, respectively.

In the case of `CC(=O)N[C@H]1C[C@H]2CC[C@@H](C1)N2Cc1cc2ccc(Oc3nc4ccccc4s3)cc2s1` [Example 134, meso-endo-N-{8-[6-(Benzothiazol-2-yloxy)-benzo[b]thiophen-2-ylmethyl]-8-aza-bicyclo[3.2.1]oct-3-yl}-acetamide], the values for the IC50 in experiment [1] and in experiment [2] were 0.74 µM and 0.043 µM, respectively.

Regarding `NC(=O)C1CCN(C(=O)c2coc3cc(Oc4nc5ncccc5s4)ccc23)CC1` [Example 378, 1-[6-(Thiazolo[4,5-b]pyridin-2-yloxy)-benzofuran-3-carbonyl]-piperidine-4-carboxylic acid amide], the IC50 in experiment [1] is 0.11 µM; in experiment [2] it was 0.022 µM.

Turning to `O=C1CCCN1C1CCN(Cc2c[nH]c3cc(Oc4nc5ncccc5s4)ccc23)CC1` [Example 20, 1-{1-[6-(Thiazolo[4,5-b]pyridin-2-yloxy)-1H-indol-3-ylmethyl]-piperidin-4-yl}-pyrrolidin-2-one], the IC50 in experiment [1] worked out at 0.081 µM; in experiment [2] it was 0.002 µM.

Consider `NC(=O)C1CCN(Cc2cc3ccc(Oc4nc5ccccc5s4)cc3[nH]2)CC1` [Example 69, 1-[6-(Benzothiazol-2-yloxy)-1H-indol-2-ylmethyl]-piperidine-4-carboxylic acid amide], for which the IC50 in experiment [1] came out at 1.22 µM; in experiment [2] it was 0.047 µM.

On to `CC(=O)N1C[C@H]2C[C@@H]1CN2Cc1cc2cc(Oc3nc4ncccc4s3)ccc2o1` [Example 102, (1R,4R)-1-{5-[5-(Thiazolo[4,5-b]pyridin-2-yloxy)-benzofuran-2-ylmethyl]-2,5-diaza-bicyclo[2.2.1]hept-2-yl}-ethanone], for which the IC50 stood at 0.293 µM in experiment [1] and 0.012 µM in experiment [2].
